What was measured:
Assay type in all cases: in vivo
[1] = tested on: Amaranthus retoflexus (AMARE); assay: Post-emergence glasshouse herbicide test; conditions: post-emergence (sprayed after 8 days cultivation), 1000 g/h, evaluated after 13 days, five point scale
Description: (§1) Seeds of a variety of test species are sown in standard soil in pots (Alopecurus myosuroides (ALOMY), Setaria faberi (SETFA), Echinochloa crus-galli (ECHCG), Solanum nigrum (SOLNI), Amaranthus retoflexus (AMARE), Ipomoea hederacea (IPOHE)). After cultivation for one day (pre-emergence) or after 8 days cultivation (post-emergence) under controlled conditions in a glasshouse (at 24/16° C., day/night; 14 hours light; 65% humidity), the plants are sprayed with an aqueous spray solution derived from the formulation of the technical active ingredient in acetone/water (50:50) solution containing 0.5% Tween 20 (polyoxyethelyene sorbitan monolaurate, CAS RN 9005-64-5). Compounds are applied at 1000 g/h. The test plants are then grown in a glasshouse under controlled conditions in a glasshouse (at 24/16° C., day/night; 14 hours light; 65% humidity) and watered twice daily. After 13 days for pre and post-emergence, the test is evaluated for the percentage damage caused to the plant. The biological activities are shown in the following table on a five point scale (5=80-100%; 4=60-79%; 3=40-59%; 2=20-39%; 1=0-19%).

[2] = tested on: Alopecurus myosuroides (ALOMY); assay: Post-emergence glasshouse herbicide test; conditions: post-emergence (sprayed after 8 days cultivation), 1000 g/h, evaluated after 13 days, five point scale
Description: as §1

Solanum nigrum (SOLNI) [3] = assay: Post-emergence glasshouse herbicide test; conditions: post-emergence (sprayed after 8 days cultivation), 1000 g/h, evaluated after 13 days, five point scale
Description: as §1

[4] = tested on: Ipomoea hederacea (IPOHE); assay: Post-emergence glasshouse herbicide test; conditions: post-emergence (sprayed after 8 days cultivation), 1000 g/h, evaluated after 13 days, five point scale
Description: as §1

[5] = tested on: Echinochloa crus-galli (ECHCG); assay: Post-emergence glasshouse herbicide test; conditions: post-emergence (sprayed after 8 days cultivation), 1000 g/h, evaluated after 13 days, five point scale
Description: as §1

Setaria faberi (SETFA) [6] = assay: Post-emergence glasshouse herbicide test; conditions: post-emergence (sprayed after 8 days cultivation), 1000 g/h, evaluated after 13 days, five point scale
Description: as §1

[7] = tested on: Amaranthus retoflexus (AMARE); assay: Pre-emergence glasshouse herbicide test; conditions: pre-emergence (sprayed after one day cultivation), 1000 g/h, evaluated after 13 days, five point scale
Description: as §1

[8] = tested on: Alopecurus myosuroides (ALOMY); assay: Pre-emergence glasshouse herbicide test; conditions: pre-emergence (sprayed after one day cultivation), 1000 g/h, evaluated after 13 days, five point scale
Description: as §1

Solanum nigrum (SOLNI) [9] = assay: Pre-emergence glasshouse herbicide test; conditions: pre-emergence (sprayed after one day cultivation), 1000 g/h, evaluated after 13 days, five point scale
Description: as §1

[10] = tested on: Ipomoea hederacea (IPOHE); assay: Pre-emergence glasshouse herbicide test; conditions: pre-emergence (sprayed after one day cultivation), 1000 g/h, evaluated after 13 days, five point scale
Description: as §1

[11] = tested on: Echinochloa crus-galli (ECHCG); assay: Pre-emergence glasshouse herbicide test; conditions: pre-emergence (sprayed after one day cultivation), 1000 g/h, evaluated after 13 days, five point scale
Description: as §1

Setaria faberi (SETFA) [12] = assay: Pre-emergence glasshouse herbicide test; conditions: pre-emergence (sprayed after one day cultivation), 1000 g/h, evaluated after 13 days, five point scale
Description: as §1

Row | SMILES | percentage damage caused to the plant, POST Application AMARE [1] | percentage damage caused to the plant, POST Application ALOMY [2] | percentage damage caused to the plant, POST Application SOLNI (Solanum nigrum (SOLNI) [3]) | percentage damage caused to the plant, POST Application IPOHE [4] | percentage damage caused to the plant, POST Application ECHCG [5] | percentage damage caused to the plant, POST Application SETFA (Setaria faberi (SETFA) [6]) | percentage damage caused to the plant, PRE Application AMARE [7] | percentage damage caused to the plant, PRE Application ALOMY [8] | percentage damage caused to the plant, PRE Application SOLNI (Solanum nigrum (SOLNI) [9]) | percentage damage caused to the plant, PRE Application IPOHE [10] | percentage damage caused to the plant, PRE Application ECHCG [11] | percentage damage caused to the plant, PRE Application SETFA (Setaria faberi (SETFA) [12])
1 | CSc1cnn(-c2ccc(S(C)(=O)=O)c(C3=NOCC3)c2C)c(=O)c1O [Compound 1.018, 2-[3-(4,5-dihydroisoxazol-3-yl)-2-methyl-4-methylsulfonyl-phenyl]-4-hydroxy-5-methylsulfanyl-pyridazin-3-one] | 5 (5=80-100%) | 2 (2=20-39%) | 5 (5=80-100%) | 5 (5=80-100%) | 2 (2=20-39%) | 2 (2=20-39%) | 5 (5=80-100%) | 2 (2=20-39%) | 5 (5=80-100%) | 5 (5=80-100%) | 2 (2=20-39%) | 2 (2=20-39%)
2 | Cc1nc(C(F)(F)F)ccc1-n1ncc(Cl)c(O)c1=O [Compound 1.019] | 5 (5=80-100%) | 5 (5=80-100%) | 5 (5=80-100%) | 5 (5=80-100%) | 5 (5=80-100%) | 5 (5=80-100%) | 5 (5=80-100%) | 5 (5=80-100%) | 5 (5=80-100%) | 5 (5=80-100%) | 5 (5=80-100%) | 5 (5=80-100%)
3 | Cc1cnn(-c2ccc(C(F)(F)F)nc2C)c(=O)c1O [Compound 1.020] | 5 (5=80-100%) | 3 (3=40-59%) | 5 (5=80-100%) | 5 (5=80-100%) | 5 (5=80-100%) | 5 (5=80-100%) | 5 (5=80-100%) | 3 (3=40-59%) | 5 (5=80-100%) | 5 (5=80-100%) | 5 (5=80-100%) | 5 (5=80-100%)
4 | C=Cc1cnn(-c2ccc(C(F)(F)F)nc2C)c(=O)c1O [Compound 1.021] | 5 (5=80-100%) | 3 (3=40-59%) | 5 (5=80-100%) | 5 (5=80-100%) | 5 (5=80-100%) | 5 (5=80-100%) | 5 (5=80-100%) | 3 (3=40-59%) | 5 (5=80-100%) | 5 (5=80-100%) | 5 (5=80-100%) | 5 (5=80-100%)
5 | CCc1cnn(-c2ccc(C(F)(F)F)nc2C)c(=O)c1O [Compound 1.022] | 5 (5=80-100%) | 4 (4=60-79%) | 5 (5=80-100%) | 4 (4=60-79%) | 5 (5=80-100%) | 4 (4=60-79%) | 5 (5=80-100%) | 4 (4=60-79%) | 5 (5=80-100%) | 4 (4=60-79%) | 5 (5=80-100%) | 4 (4=60-79%)
6 | Cc1nc(C(F)(F)F)ccc1-n1ncc(Br)c(O)c1=O [Compound 1.023] | 5 (5=80-100%) | 3 (3=40-59%) | 5 (5=80-100%) | 5 (5=80-100%) | 5 (5=80-100%) | 5 (5=80-100%) | 5 (5=80-100%) | 3 (3=40-59%) | 5 (5=80-100%) | 5 (5=80-100%) | 5 (5=80-100%) | 5 (5=80-100%)
7 | C=C(C)c1cnn(-c2ccc(C(F)(F)F)nc2C)c(=O)c1O [Compound 1.024] | 5 (5=80-100%) | 5 (5=80-100%) | 5 (5=80-100%) | 5 (5=80-100%) | 5 (5=80-100%) | 5 (5=80-100%) | 5 (5=80-100%) | 5 (5=80-100%) | 5 (5=80-100%) | 5 (5=80-100%) | 5 (5=80-100%) | 5 (5=80-100%)
8 | CSc1cnn(-c2ccc(C(F)(F)F)nc2C)c(=O)c1O [Compound 1.025] | 5 (5=80-100%) | 2 (2=20-39%) | 5 (5=80-100%) | 5 (5=80-100%) | 5 (5=80-100%) | 5 (5=80-100%) | 5 (5=80-100%) | 2 (2=20-39%) | 5 (5=80-100%) | 5 (5=80-100%) | 5 (5=80-100%) | 5 (5=80-100%)

Reference: US20140323300A1, “HERBICIDAL COMPOUNDS” (SYNGENTA LIMITED, priority 2011, published 2014)
